According to US8748461B2, “Metalloenzyme inhibitor compounds” (Viamet Pharmaceuticals, Inc., priority 2011, dated 2014):
Values after ≈ are worked out from the molar mass of the structure shown.

Tests used:
[1] = test system: Septoria tritici (ATCC 26517); assay: Minimum Inhibitory Concentration (MIC) vs. Septoria tritici; format: cell-based; conditions: 50% reduction in growth of S. tritici, 22° C., seven days; for MIC: Zymoseptoria tritici, ATCC26517, 168 h, read-out: Septoria Rating (MIC)
In short: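 Growth inhibition of S. tritici by CLSI-based filamentous-fungus microdilution, 2-fold series 16 to 0.016 μg/mL in RPMI-1640/MOPS with 2% DMSO. Inoculum approximately 5×10^4 cfu/mL; plates incubated 22° C, seven days, dark, unshaken.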

[2] = test system: Puccinia recondita tritici = Puccinia triticina; assay: Fungicidal activity vs. leaf rust on wheat plants; format: in vivo; conditions: 50 ppm spray on wheat (Yuma), inoculated the following day, evaluated 7-9 days later; for pest or weed control at 50 ppm: read-out: Puccinia Rating (% Disease Control @ 50 ppm)
Excerpt: D. Evaluation of Fungicidal Activity Vs. Leaf Rust (Causal Agent Puccinia recondita Tritici=Puccinia triticina; Bayer code PUCCRT). […] Each pot contained 3-8 seedlings. These plants were sprayed until wet with the formulated test compounds. The compounds were formulated at 50 ppm in 10 vol. % acetone plus 90 vol. % Triton X water (deionized water 99.99 wt %+0.01 wt % Triton X100), giving a “formulated test compound.” Formulated test compounds were applied to plants using a turn table sprayer fitted with two opposing air atomization nozzles which delivered approximately 1500 L/ha of spray volume. On the following day, the leaves were inoculated with an aqueous spore suspension of Puccinia recondita tritici and the plants were kept in high humidity overnight to permit spores to germinate and infect the leaf. The plants were then transferred to a greenhouse until disease developed on untreated control plants. Disease severity was evaluated 7-9 days later, depending on the speed of disease development. In each case of Table 3, the Puccinia rating scale is as follows: […]

SMILES | MIC [1] | Septoria Rating (MIC) [1] | pest or weed control at 50 ppm [2] | Puccinia Rating (% Disease Control @ 50 ppm) [2]
OC(Cn1cnnn1)(c1ccc(F)cc1F)C(F)(F)c1ccc(OCc2ccccc2)cn1 (stereo not drawn) [Compound 30, 1-(5-(Benzyloxy)pyridin-2-yl)-2-(2,4-difluorophenyl)-1,1-difluoro-3-(1H-tetrazol-1-yl)propan-2-ol] | – | A (≦0.5) | – | A (80-100)
OC(Cn1cnnn1)(c1ccc(F)cc1F)C(F)(F)c1ccc(Oc2ncccn2)cn1 (stereo not drawn) [Compound 97, 2-(2,4-difluorophenyl)-1,1-difluoro-1-(5-(pyrimidin-2-yloxy)pyridin-2-yl)-3-(1H-tetrazol-1-yl)propan-2-ol] | 0.5 to 1.5 µg/mL (≈ 1.12 to 3.35 µM) | – | 80 to 100% | –
CC(C)COc1ccc(C(F)(F)C(O)(Cn2cnnn2)c2ccc(F)cc2F)nc1 (stereo not drawn) [Compound 43, 2-(2,4-Difluorophenyl)-1,1-difluoro-1-(5-isobutoxypyridin-2-yl)-3-(1H-tetrazol-1-yl)propan-2-ol] | ≤ 0.5 µg/mL | – | 80 to 100% | –
OC(Cn1cnnn1)(c1ccc(F)cc1F)C(F)(F)c1ccc(Oc2ccc(Cl)cn2)cn1 (stereo not drawn) [Compound 95, 1-(5-((5-chloropyridin-2-yl)oxy)pyridin-2-yl)-2-(2,4-difluorophenyl)-1,1-difluoro-3-(1H-tetrazol-1-yl)propan-2-ol] | ≤ 0.5 µg/mL | – | 80 to 100% | –
N#Cc1cccc(Oc2ccc(C(F)(F)C(O)(Cn3cnnn3)c3ccc(F)cc3F)nc2)c1 (stereo not drawn) [Compound 78, 3-((6-(2-(2,4-Difluorophenyl)-1,1-difluoro-2-hydroxy-3-(1H-tetrazol-1-yl)propyl)pyridin-3-yl)oxy)benzonitrile] | ≤ 0.5 µg/mL | – | 80 to 100% | –
OC(Cn1cnnn1)(c1ccc(F)cc1F)C(F)(F)c1ccc(OCC(F)(F)c2ccccc2)cn1 (stereo not drawn) [Compound 119, 1-(5-(2,2-difluoro-2-phenylethoxy)pyridin-2-yl)-2-(2,4-difluorophenyl)-1,1-difluoro-3-(1H-tetrazol-1-yl)propan-2-ol] | ≤ 0.5 µg/mL | – | 80 to 100% | –
N#Cc1ccc(CSc2ccc(C(F)(F)C(O)(Cn3cnnn3)c3ccc(F)cc3F)nc2)c(F)c1 (stereo not drawn) [Compound 15, 4-(((6-(2-(2,4-Difluorophenyl)-1,1-difluoro-2-hydroxy-3-(1H-tetrazol-1-yl)propyl)pyridin-3-yl)thio)methyl)-3-fluorobenzonitrile] | ≤ 0.5 µg/mL | – | 40 to 59% | –
N#Cc1cc(COc2ccc(C(F)(F)C(O)(Cn3cnnn3)c3ccc(F)cc3F)nc2)ccc1F (stereo not drawn) [Compound 65, 5-(((6-(2-(2,4-Difluorophenyl)-1,1-difluoro-2-hydroxy-3-(1H-tetrazol-1-yl)propyl)pyridin-3-yl)oxy)methyl)-2-fluorobenzonitrile] | ≤ 0.5 µg/mL | – | 80 to 100% | –
COc1ccc(Oc2ccc(C(F)(F)C(O)(Cn3cnnn3)c3ccc(F)cc3F)nc2)cc1 (stereo not drawn) [Compound 87, 2-(2,4-Difluorophenyl)-1,1-difluoro-1-(5-(4-methoxyphenoxy)pyridin-2-yl)-3-(1H-tetrazol-1-yl)propan-2-ol] | > 4 µg/mL | – | 80 to 100% | –
O=Cc1ccc(Oc2ccc(C(F)(F)C(O)(Cn3cnnn3)c3ccc(F)cc3F)nc2)nc1 (stereo not drawn) [Compound 101, 6-((6-(2-(2,4-difluorophenyl)-1,1-difluoro-2-hydroxy-3-(1H-tetrazol-1-yl)propyl)pyridin-3-yl)oxy)nicotinaldehyde] | > 4 µg/mL | – | < 40% | –

Further lines, with some results ahead:

MIC [1] | Septoria Rating (MIC) [1] | SMILES | pest or weed control at 50 ppm [2] | Puccinia Rating (% Disease Control @ 50 ppm) [2]
≤ 0.5 µg/mL | – | OC(Cn1cnnn1)(c1ccc(Cl)cc1F)C(F)(F)c1ccc(OCC2CC2)cn1 (stereo not drawn) [Compound 54, 2-(4-Chloro-2-fluorophenyl)-1-(5-(cyclopropylmethoxy)pyridin-2-yl)-1,1-difluoro-3-(1H-tetrazol-1-yl)propan-2-ol] | 80 to 100% | –
≤ 0.5 µg/mL | – | N#Cc1cccc(COc2ccc(C(F)(F)C(O)(Cn3cnnn3)c3ccc(F)cc3F)nc2)c1 (stereo not drawn) [Compound 52, 3-(((6-(2-(2,4-Difluorophenyl)-1,1-difluoro-2-hydroxy-3-(1H-tetrazol-1-yl)propyl)pyridin-3-yl)oxy)methyl)benzonitrile] | 80 to 100% | –
≤ 0.5 µg/mL | – | OC(Cn1cnnn1)(c1ccc(F)cc1F)C(F)(F)c1ccc(Oc2cccc(F)c2)cn1 (stereo not drawn) [Compound 77, 2-(2,4-Difluorophenyl)-1,1-difluoro-1-(5-(3-fluorophenoxy)pyridin-2-yl)-3-(1H-tetrazol-1-yl)propan-2-ol] | 60 to 79% | –
≤ 0.5 µg/mL | – | OC(Cn1cnnn1)(c1ccc(F)cc1F)C(F)(F)c1ccc(OCc2ccccc2F)cn1 (stereo not drawn) [Compound 46, 2-(2,4-Difluorophenyl)-1,1-difluoro-1-(5-((2-fluorobenzyl)oxy)pyridin-2-yl)-3-(1H-tetrazol-1-yl)propan-2-ol] | 80 to 100% | –
≤ 0.5 µg/mL | – | N#Cc1cccc(COc2ccc(C(F)(F)C(O)(Cn3cnnn3)c3ccc(F)cc3F)nc2)c1F (stereo not drawn) [Compound 67, 3-(((6-(2-(2,4-Difluorophenyl)-1,1-difluoro-2-hydroxy-3-(1H-tetrazol-1-yl)propyl)pyridin-3-yl)oxy)methyl)-2-fluorobenzonitrile] | 80 to 100% | –
≤ 0.5 µg/mL | – | COc1cccc(Oc2ccc(C(F)(F)C(O)(Cn3cnnn3)c3ccc(F)cc3F)nc2)c1 (stereo not drawn) [Compound 85, 2-(2,4-Difluorophenyl)-1,1-difluoro-1-(5-(3-methoxyphenoxy)pyridin-2-yl)-3-(1H-tetrazol-1-yl)propan-2-ol] | 80 to 100% | –
≤ 0.5 µg/mL | – | OC(Cn1cnnn1)(c1ccc(F)cc1F)C(F)(F)c1ccc(OCc2cccc(C(F)(F)F)c2)cn1 (stereo not drawn) [Compound 26, 2-(2,4-Difluorophenyl)-1,1-difluoro-3-(1H-tetrazol-1-yl)-1-(5-((3-(trifluoromethyl)benzyl)oxy)pyridin-2-yl)propan-2-ol] | 80 to 100% | –
≤ 0.5 µg/mL | – | N#Cc1cnc(Oc2ccc(C(F)(F)C(O)(Cn3cnnn3)c3ccc(F)cc3F)nc2)s1 (stereo not drawn) [Compound 107, 2-((6-(2-(2,4-difluorophenyl)-1,1-difluoro-2-hydroxy-3-(1H-tetrazol-1-yl)propyl)pyridin-3-yl)oxy)thiazole-5-carbonitrile] | < 40% | –
≤ 0.5 µg/mL | – | OC(Cn1cnnn1)(c1ccc(F)cc1F)C(F)(F)c1ccc(OCC(F)(F)c2ccc(Cl)cc2)cn1 (stereo not drawn) [Compound 122, 1-(5-(2-(4-chlorophenyl)-2,2-difluoroethoxy)pyridin-2-yl)-2-(2,4-difluorophenyl)-1,1-difluoro-3-(1H-tetrazol-1-yl)propan-2-ol] | 80 to 100% | –
≤ 0.5 µg/mL | – | OC(Cn1cnnn1)(c1ccc(F)cc1F)C(F)(F)c1ccc(OCc2cccc(F)c2F)cn1 (stereo not drawn) [Compound 23, 1-(5-((2,3-Difluorobenzyl)oxy)pyridin-2-yl)-2-(2,4-difluorophenyl)-1,1-difluoro-3-(1H-tetrazol-1-yl)propan-2-ol] | 80 to 100% | –
≤ 0.5 µg/mL | – | OC(Cn1cnnn1)(c1ccc(F)cc1F)C(F)(F)c1ccc(OCC(F)c2ccccc2)cn1 (stereo not drawn) [Compound 123, 2-(2,4-difluorophenyl)-1,1-difluoro-1-(5-(2-fluoro-2-phenylethoxy)pyridin-2-yl)-3-(1H-tetrazol-1-yl)propan-2-ol] | 80 to 100% | –
